In US12036212B2, “Enhancement of tumor response to chemotherapy by activation of the asmase/ceramide pathway through timed administration of a short-acting anti-angiogenic agent” (Memorial Sloan-Kettering Cancer Center, priority 2014, dated 2024):

Experiments:
ASMase = ASMase activity radioenzymatic assay in BAEC; type: cell-based, bovine
Method: BAEC were established from the intima of bovine aorta as described^1. Stock cultures were grown in 100-mm dishes in Dulbecco's modified Eagle's medium (DMEM) supplemented with glucose (1 g/liter), 5% heat-inactivated calf serum (CS), penicillin (50 units/ml), and streptomycin (50 μg/ml). Purified human recombinant bFGF (1 ng/ml; R&D Systems, Inc., Minneapolis, MN) was added every other day during the exponential growth phase. […] These plateau phase cells were either used for experiments, or further sub-cultured (up to a maximum of 10 times) at a split ratio of 1:8. For sub-culturing, monolayers were dissociated with STV (0.05% trypsin and 0.02% EDTA in PBS) for 2-3 min at 22° C., washed twice in 5% CS-DMEM, and resuspended in DMEM with supplements as above. These mild conditions of trypsinization were sufficient to detach cells but not injure, stimulate, or affect cell function in a detectable way. BAEC were maintained at 37° C. in 10% CO2 humidified incubators.
ASMase activity was quantified by radioenzymatic assay using [^14C-methylcholine]sphingomyelin (Amersham) as substrate as described (Schissel et al. J Biol Chem, 271, 18431-18436, 1996). Cell lysates were incubated with [^14C-methylcholine]-sphingomyelin substrate (0.026 mCi/9.5 nmol) in 250 mM sodium acetate, pH 5.0 supplemented with 0.1% Triton X-100 and 1 mM EDTA or 0.1 mM ZnCl. Reactions were terminated after 1 h with CHCl3:MeOH:1N HCl (100:100:1, v/v/v), and [^14C-methylcholine]phosphocholine product in the aqueous layer of the Folch extract was quantified using a Beckman Packard 2200 CA Tricarb scintillation counter. For detection of ASMase activity in patients, 10 μl of serum was used.
To test the effect of chemotherapy on ASMase signaling and ceramide production, BAEC were treated with paclitaxel (100 nM) and ASMase activity was determined by radioenzymatic assay (Rotolo et al, infra) using [^14C-methylcholine] sphingomyelin (Amersham) as substrate (FIG. 1A). Induction of ASMase activity was observed within 5 minutes after treatment, and the activation continued for 30 minutes. Ceramide generation was monitored using the diacylglycerol kinase assay (Stancevic et al. PLoS ONE 8, e69025, 2013). […] In further support of this, pre-incubation of BAEC with nystatin prior to treatment with chemotherapy inhibits chemotherapy-induced apoptosis (FIG. 3).
To determine the generality of the results observed, experiments were carried out using an additional endothelial cell line, human coronary artery endothelial cells (HCAEC); experiments were also performed using a different chemotherapeutic agent. […] Next, HCAEC were treated with paclitaxel (100 nM) (data not shown) and etoposide (50 μM) (FIG. 1F), and ceramide generation was evaluated.
To further establish the generality of ASMase activation by various chemotherapeutic agents, BAEC and HCAEC were treated with increasing doses of cisplatin (0.1-50 μM) (data not shown). […] The ASMase/ceramide pathway was activated by chemotherapeutic agents that belong to different classes of chemotherapeutic agents, such as: taxanes, topoisomerase inhibitors, and nucleoside analog metabolic inhibitors. Since such chemotherapy agents are characterized by distinct mechanisms of action in tumor cells, it is surprising that a group of such distinct agents converges on a common molecular (ASMase/ceramide) axis in endothelium. The present confirmation that distinct chemotherapeutic agents activate the ASMase/ceramide pathway permits the present inventors to take into account the results of experiments using single dose radiotherapy, which has been reported to activate the same pathway (Rao, S. S. et al., Axitinib sensitization of high Single Dose Radiotherapy. Radiotherapy and Oncology: Journal of the European Society for Therapeutic Radiology and Oncology 111, 88-93, doi:10.1016/j.radonc.2014.02.010 (2014)).
Gemcitabine was able to activate ASMase in cultured endothelial cells. […]

MCA/129 fibrosarcomas = assay: Endothelial apoptosis in vivo (TUNEL/MECA-32) in MCA/129 fibrosarcomas; parameters: species or system mice; settings: gemcitabine 240 mg/kg
Method: Human HCT-116 colon cancer cells and MCA/129 murine sarcoma cells were maintained in DMEM with 10% fetal bovine serum, with 100 u/ml penicillin and 100 μg/ml streptomycin. Cells were grown as monolayers in 75 cm^2 culture flasks at 37° C. in 10% CO2 humidified incubators. Cells were trypsinized, washed in PBS and diluted in Matrigel/PBS solution (40:60 v/v) for HCT-116 xenografts or in PBS for MCA/129 syngeneic tumor grafts. Cells (3×10^6 for HCT-116 or 1×10^6 for MCA129) were injected subcutaneously into the flanks of mice (Garcia-Barros et al. Science 300, 1155-1159, 2003).
To evaluate acute endothelial apoptosis, tumors were grown in mice and treated with drugs as above. After the first treatment, tumors were harvested at specified times, placed into formalin overnight and paraffin-embedded the next day. Paraffin-embedded sections (5 μm) were co-stained for apoptotic endothelium using TUNEL and the endothelial-specific monoclonal antibody MECA-32 (Developmental Studies Hybridoma Bank, developed under the auspices of the NICHD and maintained by The University of Iowa, IA).
Similar results were observed using MCA/129 murine fibrosarcoma tumors implanted in Sv129/Bl6^asmase+/+ mice. […] After 4 hours of treatment, tumors were harvested and endothelial cell apoptosis quantified.

[1] = tested on: MCA/129 fibrosarcoma tumors; assay: IVIM MRI of vascular perfusion in MCA/129 fibrosarcoma tumors; type: in vivo, mouse; settings: gemcitabine 240 mg/kg i.p.
Text: IVIM DW-MRI was first described by Le Bihan et al. (MR imaging of intravoxel incoherent motions: application to diffusion and perfusion in neurologic disorders. Radiology 1986; 161: 401-407). The novelty of our approach lies in repeatedly acquiring IVIM data over time (e.g. “dynamic” IVIM) to monitor the acute effects of radiation (or chemotherapy), a strategy which has not been previously reported. No intravenous contrast administration is required, and IVIM parameters can be measured many times, allowing us to define kinetics of vascular dysfunction after radiation or chemotherapy. Other alternatives, such as DCE-MRI or ^15O-PET, would not serve our purpose as well: although they may be highly reflective of tissue vascularity they cannot be re-injected into a patient to serially monitor changes in vascularity over time. IVIM parameters including perfusion fraction (f), pseudo-diffusion coefficient (D*) and diffusion coefficient (D) were calculated for each lesion, using a biexponential signal decay model and incorporating a correction to account for differences in the T1 and T2 relaxation times of tissue and blood, respectively.
Briefly, MCA/129 fibrosarcoma tumors were implanted in the rear mouse hip, and subjected to intravoxel incoherent motion (IVIM) MRI when tumors reached a size of 150-300 mm^3. […] Data (mean±SEM) are collated from 6 animals per group.

[2] = tested on: advanced soft tissue sarcoma; assay: Phase II trial of gemcitabine and docetaxel with bevacizumab, volumetric tumor response; type: in vivo, human
Method: Patients with metastatic or locally-recurrent leiomyosarcoma, pleomorphic undifferentiated sarcoma, pleomorphic liposarcoma, rhabdomyosarcoma or angiosarcoma, were treated on a phase II trial of gemcitabine, docetaxel and bevacizumab. Initially the trial was a double-blind, placebo-controlled, randomized trial of gemcitabine and docetaxel with or without bevacizumab, which was modified to a single-arm, open-label, non-randomized study of gemcitabine, docetaxel and bevacizumab. The protocol was approved by the Institutional Review Board of Memorial-Sloan Kettering Cancer Center, and all patients provided written informed consent (Clinicaltrials.gov identifier NCT00887809).
Initially, gemcitabine was administered immediately following bevacizumab.
Volumetric measurement of tumors was performed on an exploratory basis as the original study was not designed or powered to specifically investigate the clinical application of timed anti-angiogenic therapy as a method of tumor chemosensitization. In light of the results from our animal studies, which were made part way through the clinical study period, volumetric measurements were proposed to more ideally facilitate comparison with our pre-clinical data. Furthermore, they likely provide a more meaningful assessment of tumor response than the RECIST based evaluation for soft tissue sarcoma. […] Baseline CT or MRI was used to identify a dominant target lesion for measurement. Follow-up scans were evaluated for best response. Tumor contours were defined manually and summed across all axial slices to calculate a total volume measurement. Tumor response was defined as at least a 30% reduction in tumor volume. Both a two-tailed Fisher's Exact Test and the Mann-Whitney Rank-Sum test were employed to evaluate significance in patient volumetric response rates at the first interval treatment scan (week 6) and at time of maximum treatment response.
Patients enrolled in the trial had metastatic or recurrent leiomyosarcoma, pleomorphic undifferentiated sarcoma, pleomorphic liposarcoma, rhabdomyosarcoma or angiosarcoma (FIG. 7A).
A total of 38 patients were treated. A subset of patients received placebo instead of bevacizumab. […] Baseline CT scan or MRI was used to identify a dominant target lesion for volumetric measurement, followed by volumetric assessment on initial post-treatment follow-up scan ([…]) and over the treatment course (representative CT time course of abdominal metastasis is shown in FIG. 7B showing regression of metastatic tumor).

[3] = human, in vivo; cited from earlier work

Dose dependence of ASMase activation (ASMase; increasing doses of gemcitabine, 5 minutes)	Molecule	ASMase activation (ASMase; etoposide 50 μM, cisplatin 0.1-50 μM, gemcitabine 100 nM time-course)	Endothelial cell apoptosis (MCA/129 fibrosarcomas; Sv129/BL6 asmase+/+)	Tumor cell apoptosis (MCA/129 fibrosarcomas)	Time of peak vascularity and diffusion reduction after treatment [1]	Diffusion (D*) ([1]; over 1 hour)	Vascularity (Fp) ([1]; over 1 hour)	Patients with >30% tumor reduction, initial follow-up scan ([2]; after two 3-week cycles, bevacizumab-gemcitabine 1-hour interval, 14 patients)	Patients with significant tumor response (≥30% reduction in tumor volume), initial follow-up scan ([2]; after two 3-week cycles, immediate consecutive bevacizumab-gemcitabine, 16 patients)	Patients with significant tumor response, best response ([2]; bevacizumab 15 mg/kg 1 hour prior to gemcitabine, docetaxel day 8, 14 patients)	Patients with significant tumor response (>30% reduction in tumor volume), best response ([2]; bevacizumab 15 mg/kg immediately before gemcitabine, docetaxel day 8, 16 patients)	Half-life (t1/2) [3]
dose-dependent manner	Nc1ccn([C@@H]2O[C@H](CO)[C@@H](O)C2(F)F)c(=O)n1 [gemcitabine]	triggered rapid cellular activation of ASMase	induced time-dependent endothelial cell apoptosis	did not cause tumor cell apoptosis	15 to 30 min	reduced in a reversible manner	reduced in a reversible manner					
	bevacizumab: monoclonal antibody that targets circulating VEGF A, long-acting AAA							64%	25%	93%	38%	21 days
